Literature values as cited in patent US7442558B2, “Phthalamide-lanthanide complexes for use as luminescent markers” (The Regents of the University of California, priority 1999, dated 2008).
Where “and” joins values, the source holds several entries; their conditions need not be identical. Equal entries are not always repeated. Structures can show the parent of a compound that is named as a salt.

Conditions: in 0.05 M H2SO4; reference standard; cited from earlier work

C=C[C@H]1C[N@@]2CC[C@H]1C[C@H]2[C@H](O)c1ccnc2ccc(OC)cc12 [quinine sulfate]
absolute quantum yield: 0.54 and 0.5460
